This is an account of results in PubChem BioAssay (NCI).

What all share (experiment): DTP human tumour cell line panel, 48 h
In test [1] the test system is A498 renal.
For test [2], the system named is NCI-H23 lung.
Test [3] has as its system NCI-H522 lung.
Test [4] deals with OVCAR-5 ovarian.
In test [5] the test system is COLO 205 colon.
The test system of test [6] is OVCAR-4 ovarian.
Test [7] concerns NCI-H226 lung.
For test [8], the system named is HCC-2998 colon.
The test system of test [9] is ACHN renal.

SMILES strings stand for the structures.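 96-well plates; 48 h exposure; 5 concentrations. Endpoints by linear interpolation between flanking doses. Not reached: highest tested concentration assigned. TGI: total growth inhibition.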

A word on the TGI: it is the concentration giving total growth inhibition. Read a high TGI as lower sensitivity of the cells. On to `N[C@H](C(=O)O)[C@H](Cl)CC(=O)O`, for which the TGI in [1], in [2], in [3], in [4], in test [5] and in [6] was above 100 µM each time. Moreover, the TGI in test [7], in test [8] and in test [9] was above 100 µM throughout.
As to `O=C(O)c1cc(=O)c2[nH]c3ccccc3c2s1`, the TGI in test [2], in test [3], in [4], in [5], in [6] and in [8] was above 100 µM each time. Further, in test [9], the TGI was above 100 µM.
For `O=c1cc(-c2ccccc2)c2cc3c(=O)ccoc3cc2o1`, the TGI in [1] was 78.7 µM; in test [2] it was above 100 µM; in test [5], above 100 µM; in test [6], above 100 µM; in test [7], above 100 µM; in [8], above 100 µM. This molecule returned a TGI in test [9] above 100 µM.
In the case of `Cc1cc(=O)oc2cc3c(cc12)Oc1ccccc1O3`, the TGI in test [1], in test [2], in test [4], in test [5], in test [6] and in test [7] was above 100 µM each time. The TGI in test [8] is above 10 µM; in test [9], above 100 µM.
Consider `NNC(=O)CCC(=O)NC1C2CC3CC(C2)CC1C3` (configuration not stated), for which the TGI in test [1], in test [2], in [3], in [4], in test [5] and in test [6] was above 100 µM in each case. Moreover, the TGI in test [7], in [8] and in test [9] was above 100 µM each time.
On to `O=C(CN1CCN(c2ccccc2)CC1)N1CCc2c([nH]c3ccccc23)C1c1cccnc1` (configuration not stated), for which the TGI was above 100 µM in [1]; above 85.3 µM in test [2]; above 85.7 µM in test [3]; above 100 µM in test [4]; above 100 µM in [5]; above 66.8 µM in test [6]. Besides, the concentration for total growth inhibition (TGI) in test [7], in test [8] and in test [9] was above 100 µM each time.
For the molecule `COc1cccc(C2c3cc4c(cc3OC(O)(CO)C2C(=O)O)OCO4)c1` (configuration not stated) (tested in a mixture with another compound), the TGI in test [1], in test [2], in test [4], in [5], in test [6] and in [7] was above 100 µM each time. For the same molecule, the TGI in test [8] and in test [9] was above 100 µM throughout.
With `Cc1ccc(NC(=O)/C(=N\Nc2ccc([N+](=O)[O-])cc2[N+](=O)[O-])C2C(=O)NC(=O)NC2=O)cc1`, the TGI in test [1], in test [2], in [3], in test [4], in test [5] and in [6] was above 100 µM in each case. Besides, the TGI in test [7] and in test [9] was above 100 µM each time.
With `N#CC(C(=O)C(=O)NCCCNC(=O)C(=O)C(C#N)c1ccccc1)c1ccccc1` (configuration not stated), the TGI in test [1], in test [2], in test [3], in [4], in test [5] and in test [6] was above 100 µM in each case. Further, the TGI in test [7], in [8] and in test [9] was above 100 µM in each case.
Regarding `CC1S(=O)(=O)OCCOS1(=O)=O`, the TGI in test [1], in test [2], in [3], in [4], in [5] and in test [6] was above 100 µM throughout. Further, the TGI in test [7], in [8] and in test [9] was above 100 µM in each case.
For `CCOC(=O)NN1C(=O)C(=P(c2ccccc2)(c2ccccc2)c2ccccc2)C(C(=O)OCC)=C1C`, the TGI in test [1], in test [2], in test [3], in test [4], in test [5] and in [6] was above 100 µM throughout. The TGI in test [7], in test [8] and in test [9] was above 100 µM throughout.
In the case of `COc1cccc(C(=O)C2C(=O)N(C)CCc3ccccc32)c1OC` (configuration not stated), the TGI in test [1], in test [2], in test [3], in test [5], in test [6] and in test [7] was above 100 µM each time. Also, in test [9], the TGI is above 100 µM.
As to `COc1ccc(O)c(C#N)c1C#N`, the TGI in test [1], in [2], in [3], in test [4], in [5] and in [6] was above 100 µM throughout. Further, the TGI in [7], in [8] and in [9] was above 100 µM in each case.
`COc1cc(/C=C/C(=O)c2sc(Nc3ccccc3)nc2C)ccc1O`: the TGI in test [1], in [2], in test [3], in test [4], in [5] and in test [8] was above 100 µM each time. Further, in [9], the concentration for total growth inhibition (TGI) was above 100 µM.
Regarding `Cc1cccc(C(C)C)c1NC(=O)C(=O)CC(=O)c1c(C)n([O-])c2ccccc2[n+]1=O`, the TGI was above 100 µM in test [1]; 51.3 µM in test [2]; 53.9 µM in test [3]; above 100 µM in test [4]; 88.3 µM in test [5]; 95 µM in test [6]. For the same molecule, the TGI in test [7], in [8] and in [9] was above 100 µM throughout.
For the molecule `COc1nc2nccc-2c2occn12`, the TGI in test [1], in [2], in [3], in [4], in test [5] and in [6] was above 100 µM throughout. Besides, the TGI in [8] and in test [9] was above 100 µM in each case.
